Source: patent US11149033B2, “Heteroaryl compound, enantiomer, diastereomer or pharmaceutically acceptable salt thereof, and antiviral composition containing same as active ingredient” (priority 2016, dated 2021)
Read-outs that look alike come from different tables or passages of the source.

What was measured:
A/Perth/16/2009 (H3N2) = experiment: Antiviral activity (drug efficacy evaluation by concentration) against A/Perth/16/2009 (H3N2); type: cell-based, A type influenza virus; settings: Influenza A virus
B/Florida/04/2006 = experiment: Antiviral activity (drug efficacy evaluation by concentration) against B/Florida/04/2006; type: cell-based, B type influenza virus
[1] = system: A/California/07/2009 (H1N1); experiment: Antiviral activity (drug efficacy evaluation by concentration) against A/California/07/2009 (H1N1); type: cell-based, A type influenza virus; settings: Influenza A virus
[2] = CC50 B/Florida/04/2006, cytotoxicity in the B/Florida/04/2006 assay
[3] = H3N2, A/Perth/16/2009 (H3N2), read-out: EC50 A/Perth/16/2009 (H3N2)
[4] = H1N1, A/California/07/2009 (H1N1), read-out: EC50 A/California/07/2009 (H1N1)
[5] = CC50, third EC50/CC50 column pair (c7), beside the EC50 of c6

Row | Compound | CC50 (in vitro; [2]) [µM] | EC50 (A/Perth/16/2009 (H3N2); [3]) [µM] | EC50 (B/Florida/04/2006; read-out: EC50 B/Florida/04/2006, B/Florida/04/2006) [µM] | melting point [°C] | EC50 [1, 4] [µM] | CC50 (in vitro; CC50, beside the EC50 of c2) [µM] | CC50 (in vitro; CC50, beside the EC50 of c4) [µM] | CC50 (in vitro; [5]) [µM] | EC50 (B/Florida/04/2006) [µM] | EC50 ([1]; H1N1, read-out: EC50) [µM] | EC50 (A/Perth/16/2009 (H3N2); H3N2, read-out: EC50) [µM]
1 | Cc1nn(Cc2nnc(SCc3ccncc3-c3ccccc3)o2)c(C)c1Br [Compound 16, 2-((4-bromo-3,5-dimethyl-1H-pyrazol-1-yl)methyl)-5-(((3-phenylpyridin-4-yl)methyl)thio)-1,3,4-oxadiazole] | > 50 | > 50 | > 50 |  |  |  |  |  |  |  | 
2 | c1ccc(-c2ccccc2CSc2nnc(-c3cnn(-c4ccccc4)c3)o2)cc1 [Compound 36, 2-(([1,1′-biphenyl]-2-ylmethyl)thio)-5-(1-phenyl-1H-pyrazol-4-yl)-1,3,4-oxadiazole] | > 50 | > 50 |  | 114.2 |  |  |  |  |  |  | 
3 | Cc1cccc(C)c1CSc1nnc(Cn2nc(C)c(Br)c2C)o1 [Compound 40, 2-((4-bromo-3,5-dimethyl-1H-pyrazol-1-yl)methyl)-5-((2,6-dimethylbenzyl)thio)-1,3,4-oxadiazole] | > 50 |  |  | 106.3 | > 50 |  |  |  |  |  | 
4 | c1ccc(-c2nnc(SCc3ccccc3-c3ccccc3)o2)cc1 [Compound 43, 2-(([1,1′-biphenyl]-2-ylmethyl)thio)-5-phenyl-1,3,4-oxadiazole] | > 50 | > 50 |  |  | > 50 |  |  |  |  |  | 
5 | O=C(c1cccc(-c2ccccc2)c1)c1nnc(Cc2ccc(Br)cc2)o1 [Compound 69, [1,1′-biphenyl]-3-yl(5-(4-bromobenzyl)-1,3,4-oxadiazol-2-yl)methanone] | > 50 | 49.3 |  | 166.4 | > 50 |  |  |  |  |  | 
6 | OC(c1cccc(-c2ccccc2)c1)c1nnc(Cc2ccc(Br)cc2)o1 (stereo not drawn) [Compound 70, [1,1′-biphenyl]-3-yl(5-(4-bromobenzyl)-1,3,4-oxadiazol-2-yl)methanol] | > 50 | 37.5 |  | 137.6 |  |  |  |  |  |  | 
7 | O=C(Nc1ccc(Br)cc1)c1nnc(SCc2ccccc2-c2ccccc2)o1 [Compound 72, 5-(([1,1′-biphenyl]-2-ylmethyl)thio)-N-(4-bromophenyl)-1,3,4-oxadiazole-2-carboxamide] | 25 | 23.5 |  |  | 0.73 |  |  |  |  |  | 
8 | CC(C)c1ccccc1/C=C/c1nnc(Cc2ccc(Br)cc2)o1 [Compound 82, (E)-2-(4-bromobenzyl)-5-(2-isopropylstyryl)-1,3,4-oxadiazole] |  |  |  | 91.6 |  | > 50 | > 50 | > 50 | > 50 |  | 
9 | Fc1cc(Nc2nnc(/C=C/c3ccccc3Br)o2)ccc1Br [Compound 88, (E)-N-(4-bromo-3-fluorophenyl)-5-(2-bromostyryl)-1,3,4-oxadiazol-2-amine] |  |  |  | 225.1 |  | > 50 | > 50 | > 50 |  | > 50 | > 50
10 | Cc1ccccc1CCc1nnc(Nc2ccc(Br)cc2)o1 [Compound 89, N-(4-bromophenyl)-5-(2-methylphenethyl)-1,3,4-oxadiazol-2-amine] |  |  |  | 153.5 |  | > 50 | > 50 | > 50 |  | > 50 | 48.4
11 | Cc1cc(Nc2nnc(CCc3ccccc3C)o2)ccc1Br [Compound 90, N-(4-bromo-3-methylphenyl)-5-(2-methylphenethyl)-1,3,4-oxadiazol-2-amine] |  |  |  | 122.7 |  | > 50 | > 50 | > 50 |  | > 50 | > 50
12 | CC(C)c1ccccc1/C=C/c1nnc(Nc2ccc(Br)cc2)o1 [Compound 117, (E)-N-(4-bromophenyl)-5-(2-isopropylstyryl)-1,3,4-oxadiazol-2-amine] |  |  |  | 225.6 |  | > 50 | > 50 |  |  | 31.4 | 43.5
13 | Brc1ccc(Nc2nnc(/C=C/c3ccccc3-c3ccccc3)o2)cc1 [Compound 124, (E)-5-(2-([1,1′-biphenyl]-2-yl)vinyl)-N-(4-bromophenyl)-1,3,4-oxadiazol-2-amine] |  |  |  | 239.3 |  | > 50 | > 50 | > 50 |  |  | > 50
14 | Brc1ccc(Nc2nnc(/C=C/c3ccccc3Oc3ccccc3)o2)cc1 [Compound 125, (E)-N-(4-bromophenyl)-5-(2-phenoxystyryl)-1,3,4-oxadiazol-2-amine] |  |  |  |  |  | > 50 | > 50 | > 50 |  | 36.7 | > 50
15 | Cc1ccccc1CC1(c2nnc(Cc3ccc(Br)cc3)o2)CC1 [Compound 129, 2-(4-bromobenzyl)-5-(1-(2-methylbenzyl)cyclopropyl)-1,3,4-oxadiazole] |  |  |  | 72.2 |  | > 50 | > 50 | > 50 |  |  | 6.13
16 | Cc1cccc(C)c1/C=C/c1nnc(Cc2ccc(Br)cc2)o1 [Compound 134, 2-(4-bromobenzyl)-5-(2,6-dimethylstyryl)-1,3,4-oxadiazole] |  |  |  |  |  | > 50 | > 50 | > 50 |  | > 50 | > 50
17 | CC(=Cc1ccccc1C)c1nnc(Cc2ccc(Br)cc2)o1 [Compound 138, 2-(4-bromobenzyl)-5-(1-(o-tolyl)prop-1-en-2-yl)-1,3,4-oxadiazole] |  |  |  |  |  | > 50 | > 50 | > 50 |  | 0.161 | 
18 | Cc1cccc(/C=C/c2nnc(Cc3ccc(Br)cc3)o2)c1C [Compound 150, 2-(4-bromobenzyl)-5-(2,3-dimethylstyryl)-1,3,4-oxadiazole] |  |  |  | 126.9 |  | > 50 | > 50 | > 50 |  |  | > 50
19 | CC(C)c1ccc(/C=C/c2nnc(Cc3ccc(Br)cc3)o2)cc1 [Compound 154, 2-(4-bromobenzyl)-5-(4-isopropylstyryl)-1,3,4-oxadiazole] |  |  |  | 139.8 |  | > 50 | > 50 | > 50 | > 50 |  | 
20 | Fc1ccc(/C=C/c2nnc(Cc3ccc(F)c(Cl)c3)o2)c(Cl)c1 [Compound 159, (E)-2-(3-chloro-4-fluorobenzyl)-5-(2-chloro-4-fluorostyryl)-1,3,4-oxadiazole] |  |  |  | 142.2 |  | > 50 | > 50 | > 50 |  | > 50 | 39.7
21 | Fc1ccc(/C=C/c2nnc(Nc3ccc(Br)c(F)c3)o2)c(Cl)c1 [Compound 160, (E)-N-(4-bromo-3-fluorophenyl)-5-(2-chloro-4-fluorostyryl)-1,3,4-oxadiazol-2-amine] |  |  |  | 195.7 |  | > 50 | > 50 | > 50 |  | > 50 | > 50
22 | Cc1cc(Cc2nnc(/C=C/c3ccccc3C(C)C)o2)ccc1Br [Compound 172, 2-(4-bromo-3-methylbenzyl)-5-(2-isopropylstyryl)-1,3,4-oxadiazole] |  |  |  | 117.1 |  | > 50 | > 50 | > 50 |  |  | 
23 | CC(C)c1ccccc1/C=C/c1nc(Cc2ccc(Br)cc2)no1 [Compound 175, (E)-3-(4-bromobenzyl)-5-(2-isopropylstyryl)-1,2,4-oxadiazole] |  |  |  | 81.5 |  | > 50 | > 50 | > 50 |  |  | 
24 | Cc1cc(Cc2nnc(/C=C/c3ccc(F)cc3Cl)o2)ccc1Br [Compound 176, (E)-2-(4-bromo-3-methylbenzyl)-5-(2-chloro-4-fluorostyryl)-1,3,4-oxadiazole] |  |  |  | 119.9 |  | 6.53 | > 50 | > 50 |  |  | 
25 | Fc1ccc(/C=C/c2nnc(Cc3cccc(Cl)c3)o2)c(Cl)c1 [Compound 179, (E)-2-(2-chloro-4-fluorostyryl)-5-(3-chlorobenzyl)-1,3,4-oxadiazole] |  |  |  | 104 |  | > 50 | > 50 | > 50 |  | 0.632 | 
26 | Fc1ccc(/C=C/c2nnc(Cc3cccc(Br)c3)o2)c(F)c1 [Compound 189, 2-(3-bromobenzyl)-5-(2,4-difluorostyryl)-1,3,4-oxadiazole] |  |  |  | 87.7 |  | > 50 | > 50 | > 50 |  |  | 
27 | Fc1cc(Cl)ccc1/C=C/c1nnc(Cc2cccc(Br)c2)o1 [Compound 190, 2-(3-bromobenzyl)-5-(4-chloro-2-fluorostyryl)-1,3,4-oxadiazole] |  |  |  | 107.2 |  |  | 40.1 |  |  |  | 
28 | Cc1ncccc1/C=C/c1nnc(Cc2cccc(Br)c2)o1 [Compound 204, (E)-2-(3-bromobenzyl)-5-(2-(2-methylpyridin-3-yl)vinyl)-1,3,4-oxadiazole] |  |  |  |  |  | > 50 | > 50 | > 50 | 2.5 |  | 
29 | Fc1ccc(/C=C/c2nnc(Cc3cc(Cl)ccn3)o2)c(Cl)c1 [Compound 206, (E)-2-(2-chloro-4-fluorostyryl)-5-((4-chloropyridin-2-yl)methyl)-1,3,4-oxadiazole] |  |  |  |  |  | > 50 | > 50 | > 50 | 2.26 |  | 1.28
30 | Fc1ccc(/C=C/c2nnc(Cc3ccc(F)c(Br)c3)o2)c(Cl)c1 [Compound 207, 2-(3-bromo-4-fluorobenzyl)-5-(2-chloro-4-fluorostyryl)-1,3,4-oxadiazole] |  |  |  | 123 |  | > 50 | > 50 | > 50 |  |  | 
